Laboratory results taken from patent publication US5047397A, “Linear analogs of atrial natriuretic peptides” (California Biotechnology Inc., priority 1988, dated 1991).
*1 amine or outer side, *2 acyl side, *3 side chain or, on linkers, in order; H or OH if unused. Where a SMILES comes first, the peptide text is derived from it. Where no end group is shown, it is not given here. [ ]: non-standard residue; d: D form. The star is where a group is joined. Butyryl(4-indol-3-yl) = O=C(CCCc1c[nH]c2ccccc12)*; Acetyl(2-naphthyloxy) = O=C(COc1ccc2ccccc2c1)*; Acetyl(2-naphthyl) = O=C(Cc1ccc2ccccc2c1)*; X4 = O=C(Cc1ccc(NCCc2ccc3ccccc3c2)cc1)*; Hydrocinnamoyl = O=C(CCc1ccccc1)*; NMeI = CC[C@H](C)[C@H](NC)C(=O)O; X1 = O=C(Cc1ccc(N[*:1])cc1)[*:2]; tBuAla = CC(C)(C)C[C@H](N)C(=O)O; Aoc = NCCCCCCCC(=O)O; Ahx = NCCCCCC(=O)O; Ava = NCCCCC(=O)O; GABA = NCCCC(=O)O; BrAc = O=C(CBr)*; βAla = NCCC(=O)O

What follows are compounds tested against T1, specific ANP receptor sites on BASM or BAE cells (Bos taurus, UniProt P10730) (assay: Competitive displacement receptor binding of (125I)-rANP(126-150) on cultured cells). Conditions: concentration of unlabeled peptide displacing 50% of maximal binding of 0.5 nM (125I)-rANP(126-150); BASM or BAE cells.
T1 construct: specific receptor sites on BASM or BAE cells; endogenous in cells; host or cells: cultured BASM and BAE cells
T1 sequence (P10730 42-537): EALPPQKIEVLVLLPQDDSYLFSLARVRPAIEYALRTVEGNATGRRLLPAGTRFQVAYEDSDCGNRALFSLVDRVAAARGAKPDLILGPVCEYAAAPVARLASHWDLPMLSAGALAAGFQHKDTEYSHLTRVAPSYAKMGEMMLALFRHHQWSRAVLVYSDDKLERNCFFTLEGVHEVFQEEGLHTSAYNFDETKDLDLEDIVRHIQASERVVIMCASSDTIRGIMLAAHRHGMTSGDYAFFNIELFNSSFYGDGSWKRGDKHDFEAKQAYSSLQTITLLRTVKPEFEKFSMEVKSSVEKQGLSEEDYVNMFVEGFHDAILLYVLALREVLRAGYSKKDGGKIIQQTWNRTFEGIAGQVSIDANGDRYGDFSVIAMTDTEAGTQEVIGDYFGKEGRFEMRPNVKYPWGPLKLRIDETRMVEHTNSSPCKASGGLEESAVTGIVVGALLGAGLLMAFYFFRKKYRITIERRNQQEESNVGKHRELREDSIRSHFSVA
Set-up: species or system bovine
Source text: Analogous "competitive displacement" receptor binding assays are considered commonplace in the art for examining specific ligand-receptor interactions.
Assuming these ANP analogs act at one or more ANP receptor sites, then increased receptor affinity should reflect increased biological potency.

| Compound | Ki(app) |
| --- | --- |
| CC[C@H](C)[C@H](NC(=O)[C@H](CCCNC(=N)N)NC(=O)[C@H](CC(=O)O)NC(=O)[C@@H](NC(=O)[C@H](CCCNC(=N)N)NC(=O)CNC(=O)CNC(=O)COc1ccc2ccccc2c1)[C@@H](C)CC)C(=O)NCC(=O)N[C@@H](C)C(N)=O [AP318, (2-NOA)--G--G--R--I--D--R--I--G--A--NH2] ({Acetyl(2-naphthyloxy)}-GGRIDRIGA-NH2) | 8.7 nM |
| CC[C@H](C)[C@H](NC(=O)[C@H](CCCNC(=N)N)NC(=O)[C@H](CCC(=O)O)NC(=O)[C@@H](NC(=O)[C@H](CCCNC(=N)N)NC(=O)CNC(=O)CNC(=O)Cc1ccc2ccccc2c1)[C@@H](C)CC)C(N)=O [AP518, (2-NA)--G--G--R--I--E--R--I--NH2] ({Acetyl(2-naphthyl)}-GGRIERI-NH2) | 38 nM |
| CC[C@H](C)[C@H](NC(=O)[C@H](CCCCN)NC(=O)[C@H](CC(=O)O)NC(=O)[C@@H](NC(=O)[C@H](CCCNC(=N)N)NC(=O)Cc1ccc(NC(=O)Cc2ccc3ccccc3c2)cc1)[C@@H](C)CC)C(N)=O [AP799] ({Acetyl(2-naphthyl)}-[X1]RIDKI-NH2) | 3.6 nM |
| CC[C@H](C)[C@H](NC(=O)[C@H](CCCNC(=N)N)NC(=O)[C@H](CC(=O)O)NC(=O)[C@@H](NC(=O)[C@H](CCCNC(=N)N)NC(=O)Cc1ccc(NC(=O)[C@H](Cc2ccccc2)NC(=O)CBr)cc1)[C@@H](C)CC)C(N)=O [AP819] (BrAc-F[X1]RIDRI-NH2) | 3.8 nM |
| CC[C@H](C)[C@H](NC(=O)[C@H](CCCNC(=N)N)NC(=O)[C@H](CC(=O)O)NC(=O)[C@@H](NC(=O)[C@H](CCCNC(=N)N)NC(=O)Cc1ccc(NCCc2ccc3ccccc3c2)cc1)[C@@H](C)CC)C(N)=O [AP796] (X4-RIDRI-NH2) | 27.3 nM |
| CC[C@H](C)[C@H](NC(=O)[C@H](CCCNC(=N)N)NC(=O)CNC(=O)CNC(=O)Cc1ccc2ccccc2c1)C(=O)N[C@@H](CC(=O)O)C(=O)N[C@@H](CCCNC(=N)N)C(=O)N[C@H](Cc1ccccc1)C(N)=O [AP537, (2-NA)--G--G--R--I--D--R--F^ --NH2)] ({Acetyl(2-naphthyl)}-GGRIDR[dF]-NH2) | > 160 nM |
| CC[C@H](C)[C@H](NC(=O)[C@H](CCCNC(=N)N)NC(=O)[C@H](CC(=O)O)NC(=O)[C@@H](NC(=O)[C@H](CCCNC(=N)N)NC(=O)CCCNC(=O)Cc1ccc2ccccc2c1)[C@@H](C)CC)C(N)=O [AP327, (2-NA)--NH(CH2)3 CO--R--I-- D--R--I--NH2] ({Acetyl(2-naphthyl)-GABA}-RIDRI-NH2) | 184 nM |
| CC[C@H](C)[C@H](NC(=O)[C@H](CCCNC(=N)N)NC(=O)[C@H](CC(=O)O)NC(=O)[C@@H](NC(=O)[C@H](CCCNC(=N)N)NC(=O)CNC(=O)CCCc1c[nH]c2ccccc12)[C@@H](C)CC)C(=O)NCC(=O)N[C@@H](C)C(N)=O [AP597, (3-IB)--G--R--I--D--R--I--G--A--NH2] ({Butyryl(4-indol-3-yl)}-GRIDRIGA-NH2) | 9.3 nM |
| CC[C@H](C)[C@H](NC(=O)[C@H](CCCNC(=N)N)NC(=O)CNC(=O)CNC(=O)Cc1ccc2ccccc2c1)C(=O)N[C@@H](CC(=O)O)C(=O)N[C@@H](CCCNC(=N)N)C(=O)N[C@@H](CC(C)(C)C)C(N)=O [AP594, (2-NA)--G--G--R--I--D--R--tBuA--NH2] ({Acetyl(2-naphthyl)}-GGRIDR[tBuAla]-NH2) | 15.0 nM |
| CC[C@@H](C)[C@@H](NC(=O)[C@H](CCCNC(=N)N)NC(=O)CNC(=O)CNC(=O)[C@H](Cc1ccccc1)NC(=O)[C@H](C)N)C(=O)N[C@@H](CC(=O)O)C(=O)N[C@@H](CCCNC(=N)N)C(=O)N[C@H](C(=O)NCC(=O)N[C@@H](C)C(N)=O)[C@@H](C)CC [AP302, A--F--G--G--R--I^ --D--R--I--G--A--NH2] (H-AFGGR[dI]DRIGA-NH2) | 18.9 nM |
| CC[C@H](C)[C@H](NC(=O)[C@H](CCCNC(=N)N)NC(=O)[C@H](CC(=O)O)NC(=O)[C@@H](NC(=O)[C@H](CCCNC(=N)N)NC(=O)CCCCCCCNC(=O)COc1ccc2ccccc2c1)[C@@H](C)CC)C(N)=O [AP789, (2-NOA)--NH--(CH2)7 --CO--R--I--D--R--I--NH2] ({Acetyl(2-naphthyloxy)-Aoc}-RIDRI-NH2) | 380 nM |
| CC[C@H](C)[C@H](NC(=O)[C@H](CCCNC(=N)N)NC(=O)[C@H](CC(=O)O)NC(=O)[C@@H](NC(=O)[C@H](C)NC(=O)CNC(=O)CNC(=O)Cc1ccc2ccccc2c1)[C@@H](C)CC)C(N)=O [AP338, (2-NA)--G--G--A--I--D--R--I--NH2] ({Acetyl(2-naphthyl)}-GGAIDRI-NH2) | 82.6 nM |
| CC[C@H](C)[C@H](NC(=O)[C@H](CCCNC(=N)N)NC(=O)[C@H](CC(=O)O)NC[C@@H](NC(=O)[C@H](CCCNC(=N)N)NC(=O)Cc1ccc(NC(=O)Cc2ccc3ccccc3c2)cc1)[C@@H](C)CC)C(N)=O [AP701] | 60.3 nM |
| CCNC(=O)[C@H]([C@@H](C)CC)N(C)C(=O)[C@H](CCCNC(=N)N)NC(=O)[C@H](CC(=O)O)NC(=O)[C@@H](NC(=O)[C@H](CCCNC(=N)N)NC(=O)CNC(=O)CNC(=O)Cc1ccc2ccccc2c1)[C@@H](C)CC [AP596, (2-NA)--G--G--R--I--D--R--NMeIle--NH(ethyl)] ({Acetyl(2-naphthyl)}-GGRIDR[NMeI]-NHEt) | 87.3 nM |
| CC[C@H](C)[C@H](NC(=O)[C@H](CCCNC(=N)N)NC(=O)[C@H](CC(=O)O)NC(=O)[C@@H](NC(=O)[C@H](CCCCNC(C)=O)NC(=O)Cc1ccc(NC(=O)COc2ccc3ccccc3c2)cc1)[C@@H](C)CC)C(N)=O [AP801] ({Acetyl(2-naphthyloxy)}-[X1]K(Ac)IDRI-NH2) | 3.95 nM |
| CC[C@H](C)[C@H](NC(=O)[C@H](CCCNC(=N)N)NC(=O)[C@H](CC(=O)O)NC(=O)[C@@H](NC(=O)[C@H](CCCNC(=N)N)NC(=O)CCNC(=O)CCCc1c[nH]c2ccccc12)[C@@H](C)CC)C(=O)NCC(=O)N[C@@H](C)C(N)=O [AP532, (3-IB)--beta--Ala--R--I--D--R--I--G--A--NH2)] ({Butyryl(4-indol-3-yl)-βAla}-RIDRIGA-NH2) | 11.95 nM |
| CC[C@H](C)[C@H](NC(=O)[C@H](CCCNC(=N)N)NC(=O)[C@H](CC(=O)O)NC(=O)[C@H](CC(C)(C)C)NC(=O)[C@H](CCCNC(=N)N)NC(=O)CNC(=O)CNC(=O)Cc1ccc2ccccc2c1)C(N)=O [AP590, (2-NA)--G--G--R--tBuA--D--R--I--NH2] ({Acetyl(2-naphthyl)}-GGR[tBuAla]DRI-NH2) | 12.0 nM |
| CC[C@H](C)[C@H](NC(=O)[C@H](CCCNC(=N)N)NC(=O)[C@H](CC(=O)O)NC(=O)[C@@H](NC(=O)[C@H](CCCNC(=N)N)NC(=O)CCCCCNC(=O)Cc1ccc2ccccc2c1)[C@@H](C)CC)C(N)=O [AP329, (2-NA)--NH(CH2)5 CO--R--I--D--R--I--NH2] ({Acetyl(2-naphthyl)-Ahx}-RIDRI-NH2) | 147.78 nM |
| CCNC(=O)CNC(=O)[C@@H](NC(=O)[C@H](CCCNC(=N)N)NC(=O)[C@H](CC(=O)O)NC(=O)[C@@H](NC(=O)[C@H](CCCNC(=N)N)NC(=O)CCCCNC(=O)Cc1ccc2ccccc2c1)[C@@H](C)CC)[C@@H](C)CC [AP530, (2-NA)--NH(CH2)4 CO--R--I--D--R--I--G--NH--(ethyl)] ({Acetyl(2-naphthyl)-Ava}-RIDRIG-NHEt) | 50.5 nM |
| FGGRIDRI-NH2 [AP119, F--G--G--R--I--D--R--I--NH2] | 8.9 nM |
| CC[C@H](C)[C@H](NC(=O)[C@H](CCCNC(=N)N)NC(=O)[C@H](CC(=O)O)NC(=O)[C@@H](NC(=O)[C@H](CCCNC(=N)N)NC(=O)CNC(=O)CNC(=O)CCc1ccccc1)[C@@H](C)CC)C(=O)NCC(=O)N[C@@H](C)C(N)=O [AP130, (desNH2 --F)--G--G--R--I--D--R--I--G--A--NH2] (Hydrocinnamoyl-GGRIDRIGA-NH2) | 8.8 nM |
